Patent publication US8796289B2 (AbbVie Inc., priority 2011, dated 2014)

target: GST-tagged-Wee1 kinase (Homo sapiens, UniProt P30291); experiment: Wee1 time-resolved fluorescence equilibrium binding assay (displacement of Oregon Green-labeled ATP-competitive kinase probe)
Experimental: Wee1 kinase was assayed using a time-resolved fluorescence equilibrium binding assay monitoring displacement of a rapidly reversible Oregon Green-labeled ATP-competitive kinase probe (N-(2-(2-(2-(4-(4-(5-chloro-4-(2-(1-hydroxycyclobutyl)thiazol-5-yl)-1H-pyrrolo[2,3-b]pyridin-2-yl)phenyl)piperazin-1-yl)ethoxy)ethoxy)ethyl)-2′,7′-difluoro-3′,6′-dihydroxy-3-oxo-3H-spiro[isobenzofuran-1,9′-xanthene]-5-carboxamide) by competitive Wee1 inhibitors.

GST-tagged-Wee1 kinase, sequence (P30291 whole entry): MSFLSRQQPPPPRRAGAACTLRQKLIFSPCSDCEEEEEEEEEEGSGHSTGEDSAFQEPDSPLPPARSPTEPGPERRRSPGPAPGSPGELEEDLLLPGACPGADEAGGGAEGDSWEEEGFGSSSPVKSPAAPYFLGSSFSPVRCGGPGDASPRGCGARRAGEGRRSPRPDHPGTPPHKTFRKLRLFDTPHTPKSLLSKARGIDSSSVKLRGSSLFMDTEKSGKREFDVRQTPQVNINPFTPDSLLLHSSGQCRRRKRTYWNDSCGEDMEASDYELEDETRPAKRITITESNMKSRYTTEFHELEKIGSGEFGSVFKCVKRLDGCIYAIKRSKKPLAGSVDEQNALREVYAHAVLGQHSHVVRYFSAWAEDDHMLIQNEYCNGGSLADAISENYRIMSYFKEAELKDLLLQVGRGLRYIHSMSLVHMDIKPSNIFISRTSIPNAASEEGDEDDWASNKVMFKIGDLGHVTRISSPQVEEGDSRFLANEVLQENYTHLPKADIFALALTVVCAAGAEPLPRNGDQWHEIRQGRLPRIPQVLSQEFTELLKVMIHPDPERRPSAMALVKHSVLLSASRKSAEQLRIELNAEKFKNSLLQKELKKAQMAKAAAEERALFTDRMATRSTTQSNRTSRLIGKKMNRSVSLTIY

Row | Ki | Compound
1 | 0.23 nM | CCc1nn(-c2c(Cl)cccc2Cl)c(=O)c2cnc(Nc3ccc4c(c3)CN(C)CC43CC3)nc12 [Example 402, 6-(2,6-dichlorophenyl)-8-ethyl-2-[(2′-methyl-2′,3′-dihydro-1′H-spiro[cyclopropane-1,4′-isoquinolin]-7′-yl)amino]pyrimido[4,5-d]pyridazin-5(6H)-one]
2 | 0.21 nM | CCc1nn(-c2c(Cl)cccc2Cl)c(=O)c2cnc(Nc3ccc4c(c3)CNCC4)nc12 [Example 403, 6-(2,6-dichlorophenyl)-8-ethyl-2-(1,2,3,4-tetrahydroisoquinolin-7-ylamino)pyrimido[4,5-d]pyridazin-5(6H)-one]
3 | 0.25 nM | CCc1nn(-c2c(Cl)cccc2Cl)c(=O)c2cnc(Nc3ccc4c(c3)CNCC43CC3)nc12 [Example 404, 6-(2,6-dichlorophenyl)-2-(2′,3′-dihydro-1′H-spiro[cyclopropane-1,4′-isoquinolin]-7′-ylamino)-8-ethylpyrimido[4,5-d]pyridazin-5(6H)-one]
4 | 0.79 nM | O=c1c2cnc(Nc3ccc(N4CCNCC4)cc3)nc2c(C(F)F)nn1-c1c(Cl)cccc1Cl [Example 405, 6-(2,6-dichlorophenyl)-8-(difluoromethyl)-2-{[4-(piperazin-1-yl)phenyl]amino}pyrimido[4,5-d]pyridazin-5(6H)-one]
5 | 0.7 nM | CCc1nn(-c2c(Cl)cccc2Cl)c(=O)c2cnc(Nc3ccc4c(c3)CC(N(C)C)C4)nc12 (centres unmarked) [Example 406, 6-(2,6-dichlorophenyl)-2-{[2-(dimethylamino)-2,3-dihydro-1H-inden-5-yl]amino}-8-ethylpyrimido[4,5-d]pyridazin-5(6H)-one]
6 | 0.21 nM | O=c1c2cnc(Nc3ccc4c(c3)CNCC43CC3)nc2c(C(F)F)nn1-c1c(Cl)cccc1Cl [Example 407, 6-(2,6-dichlorophenyl)-8-(difluoromethyl)-2-(2′,3′-dihydro-1′H-spiro[cyclopropane-1,4′-isoquinolin]-7′-ylamino)pyrimido[4,5-d]pyridazin-5(6H)-one]
7 | 0.41 nM | CN(C)C1Cc2ccc(Nc3ncc4c(=O)n(-c5c(Cl)cccc5Cl)nc(C(F)F)c4n3)cc2C1 (centres unmarked) [Example 408, 6-(2,6-dichlorophenyl)-8-(difluoromethyl)-2-{[2-(dimethylamino)-2,3-dihydro-1H-inden-5-yl]amino}pyrimido[4,5-d]pyridazin-5(6H)-one]
8 | 1 nM | CCc1nn(-c2c(Cl)cccc2Cl)c(=O)c2cnc(Nc3ccc(N4CCNCC4)cc3)nc12 [Example 409, 6-(2,6-dichlorophenyl)-8-ethyl-2-{[4-(piperazin-1-yl)phenyl]amino}pyrimido[4,5-d]pyridazin-5(6H)-one]
9 | 1 nM | O=c1c2cnc(Nc3ccc4c(c3)CNCC4)nc2c(C(F)F)nn1-c1c(Cl)cccc1Cl [Example 410, 6-(2,6-dichlorophenyl)-8-(difluoromethyl)-2-(1,2,3,4-tetrahydroisoquinolin-7-ylamino)pyrimido[4,5-d]pyridazin-5(6H)-one]
10 | 1 nM | CN1Cc2cc(Nc3ncc4c(=O)n(-c5c(Cl)cccc5Cl)nc(C(F)F)c4n3)ccc2C2(CC2)C1 [Example 411, 6-(2,6-dichlorophenyl)-8-(difluoromethyl)-2-[(2′-methyl-2′,3′-dihydro-1′H-spiro[cyclopropane-1,4′-isoquinolin]-7′-yl)amino]pyrimido[4,5-d]pyridazin-5(6H)-one]
11 | 1 nM | CN1CCN(c2ccc(Nc3ncc4c(=O)n(-c5c(Cl)cccc5Cl)nc(C(F)(F)F)c4n3)cc2)CC1 [Example 412, 6-(2,6-dichlorophenyl)-2-{[4-(4-methylpiperazin-1-yl)phenyl]amino}-8-(trifluoromethyl)pyrimido[4,5-d]pyridazin-5(6H)-one]
12 | 0.34 nM | CN1Cc2cc(Nc3ncc4c(=O)n(-c5c(Cl)cccc5Cl)nc(C(F)(F)F)c4n3)ccc2C2(CC2)C1 [Example 413, 6-(2,6-dichlorophenyl)-2-[(2′-methyl-2′,3′-dihydro-1′H-spiro[cyclopropane-1,4′-isoquinolin]-7′-yl)amino]-8-(trifluoromethyl)pyrimido[4,5-d]pyridazin-5(6H)-one]
13 | 0.75 nM | CCc1nn(-c2c(Cl)cccc2Cl)c(=O)c2cnc(Nc3ccc(N4CCN(C(C)=O)CC4)cc3)nc12 [Example 414, 2-{[4-(4-acetylpiperazin-1-yl)phenyl]amino}-6-(2,6-dichlorophenyl)-8-ethylpyrimido[4,5-d]pyridazin-5(6H)-one]
14 | 1 nM | CC(=O)N1Cc2cc(Nc3ncc4c(=O)n(-c5c(Cl)cccc5Cl)nc(C(F)F)c4n3)ccc2C2(CC2)C1 [Example 415, 2-[(2′-acetyl-2′,3′-dihydro-1′H-spiro[cyclopropane-1,4′-isoquinolin]-7′-yl)amino]-6-(2,6-dichlorophenyl)-8-(difluoromethyl)pyrimido[4,5-d]pyridazin-5(6H)-one]
15 | 0.19 nM | Cc1nn(-c2c(Cl)cccc2Cl)c(=O)c2cnc(Nc3ccc4c(c3)CN(C(N)=O)CC43CC3)nc12 [Example 416, 7′-{[6-(2,6-dichlorophenyl)-8-methyl-5-oxo-5,6-dihydropyrimido[4,5-d]pyridazin-2-yl]amino}-1′H-spiro[cyclopropane-1,4′-isoquinoline]-2′(3′H)-carboxamide]
16 | 0.31 nM | CC(=O)N1Cc2cc(Nc3ncc4c(=O)n(-c5c(Cl)cccc5Cl)nc(C)c4n3)ccc2C2(CC2)C1 [Example 417, 2-[(2′-acetyl-2′,3′-dihydro-1′H-spiro[cyclopropane-1,4′-isoquinolin]-7′-yl)amino]-6-(2,6-dichlorophenyl)-8-methylpyrimido[4,5-d]pyridazin-5(6H)-one]
17 | 0.35 nM | O=c1c2cnc(Nc3ccc(N4CCNCC4)cc3)nc2c(C(F)(F)F)nn1-c1c(Cl)cccc1Cl [Example 418, 6-(2,6-dichlorophenyl)-2-{[4-(piperazin-1-yl)phenyl]amino}-8-(trifluoromethyl)pyrimido[4,5-d]pyridazin-5(6H)-one]
18 | 0.19 nM | CN1CCN(c2ccc(Nc3ncc4c(=O)n(-c5c(Cl)cccc5Cl)nc(CF)c4n3)cc2)CC1 [Example 419, 6-(2,6-dichlorophenyl)-8-(fluoromethyl)-2-{[4-(4-methylpiperazin-1-yl)phenyl]amino}pyrimido[4,5-d]pyridazin-5(6H)-one]
19 | 0.45 nM | O=c1c2cnc(Nc3ccc4c(c3)CNCC43CC3)nc2c(C(F)(F)F)nn1-c1c(Cl)cccc1Cl [Example 420, 6-(2,6-dichlorophenyl)-2-(2′,3′-dihydro-1′H-spiro[cyclopropane-1,4′-isoquinolin]-7′-ylamino)-8-(trifluoromethyl)pyrimido[4,5-d]pyridazin-5(6H)-one]
20 | 0.5 nM | O=c1c2cnc(Nc3ccc4c(c3)CNCC4)nc2c(C(F)(F)F)nn1-c1c(Cl)cccc1Cl [Example 421, 6-(2,6-dichlorophenyl)-2-(1,2,3,4-tetrahydroisoquinolin-7-ylamino)-8-(trifluoromethyl)pyrimido[4,5-d]pyridazin-5(6H)-one]
21 | 0.4 nM | O=c1c2cnc(Nc3ccc(C4CCNC4)cc3)nc2c(C(F)(F)F)nn1-c1c(Cl)cccc1Cl (centres unmarked) [Example 422, 6-(2,6-dichlorophenyl)-2-{[4-(pyrrolidin-3-yl)phenyl]amino}-8-(trifluoromethyl)pyrimido[4,5-d]pyridazin-5(6H)-one]
22 | 0.7 nM | COCc1nn(-c2c(Cl)cccc2Cl)c(=O)c2cnc(Nc3ccc(N4CCN(C)CC4)cc3)nc12 [Example 423, 6-(2,6-dichlorophenyl)-8-(methoxymethyl)-2-{[4-(4-methylpiperazin-1-yl)phenyl]amino}pyrimido[4,5-d]pyridazin-5(6H)-one]
23 | 0.4 nM | COCc1nn(-c2c(Cl)cccc2Cl)c(=O)c2cnc(Nc3ccc(N4CCNCC4)cc3)nc12 [Example 424, 6-(2,6-dichlorophenyl)-8-(methoxymethyl)-2-{[4-(piperazin-1-yl)phenyl]amino}pyrimido[4,5-d]pyridazin-5(6H)-one]
24 | 0.19 nM | Cc1nn(-c2c(Cl)cccc2Cl)c(=O)c2cnc(Nc3ccc(N4CCC(N(C)C)CC4)cc3)nc12 [Example 425, 6-(2,6-dichlorophenyl)-2-({4-[4-(dimethylamino)piperidin-1-yl]phenyl}amino)-8-methylpyrimido[4,5-d]pyridazin-5(6H)-one]
25 | 0.11 nM | Cc1nn(-c2c(Cl)cccc2Cl)c(=O)c2cnc(Nc3ccc4c(c3)CN(C(=O)CO)CC43CC3)nc12 [Example 426, 6-(2,6-dichlorophenyl)-2-{[2′-(hydroxyacetyl)-2′,3′-dihydro-1′H-spiro[cyclopropane-1,4′-isoquinolin]-7′-yl]amino}-8-methylpyrimido[4,5-d]pyridazin-5(6H)-one]
26 | 0.91 nM | Cc1nn(-c2c(Cl)cccc2Cl)c(=O)c2cnc(Nc3ccc4c(c3)CN(S(C)(=O)=O)CC43CC3)nc12 [Example 427, 6-(2,6-dichlorophenyl)-8-methyl-2-{[2′-(methylsulfonyl)-2′,3′-dihydro-1′H-spiro[cyclopropane-1,4′-isoquinolin]-7′-yl]amino}pyrimido[4,5-d]pyridazin-5(6H)-one]
27 | 0.24 nM | COCc1nn(-c2c(Cl)cccc2Cl)c(=O)c2cnc(Nc3ccc4c(c3)CNCC43CC3)nc12 [Example 428, 6-(2,6-dichlorophenyl)-2-(2′,3′-dihydro-1′H-spiro[cyclopropane-1,4′-isoquinolin]-7′-ylamino)-8-(methoxymethyl)pyrimido[4,5-d]pyridazin-5(6H)-one]
28 | 0.48 nM | COCc1nn(-c2c(Cl)cccc2Cl)c(=O)c2cnc(Nc3ccc4c(c3)CN(C)CC43CC3)nc12 [Example 429, 6-(2,6-dichlorophenyl)-8-(methoxymethyl)-2-[(2′-methyl-2′,3′-dihydro-1′H-spiro[cyclopropane-1,4′-isoquinolin]-7′-yl)amino]pyrimido[4,5-d]pyridazin-5(6H)-one]
29 | 0.2 nM | O=c1c2cnc(Nc3ccc(N4CCNCC4)cc3)nc2c(CO)nn1-c1c(Cl)cccc1Cl [Example 430, 6-(2,6-dichlorophenyl)-8-(hydroxymethyl)-2-{[4-(piperazin-1-yl)phenyl]amino}pyrimido[4,5-d]pyridazin-5(6H)-one]
